Results: EP2114888B1, “TRICYCLIC COMPOUNDS AND THEIR USE AS GLUCOCORTICOID RECEPTOR MODULATORS” (priority 2007, dated 2008)

What was measured:
[1] = system: Mouse Collagen-induced arthritis (mCIA); assay: Traditional mouse collagen-induced arthritis (mCIA) model; type: in vivo, male DBA/J mice; details: mice
Procedure: Mouse Collagen-induced arthritis is a commonly used chronic, preclinical model of rheumatoid arthritis in which joint swelling and bone destruction occur following immunization with type II collagen. Reduction of disease incidence and severity has been shown previously to be predictive of disease-modification and signs and symptoms mitigation, respectively, in a clinical setting.
In the traditional mCIA model, male DBA/J mice were immunized with 50 µg chick type II collagen (cCII) in complete Freund's adjuvant and then boosted 21 days later with 50 µg cCII in incomplete Freund's adjuvant. Treatment with compounds was initiated on the morning of the boost and continued for 56 days. The effectiveness of treatment was measured by disease incidence (i.e., number of mice showing any sign of disease) and disease severity, both of which were measured twice a week.

[2] = Cortical bone histomorphometry to determine bone formation rate (BFR); type: in vivo, mice
Procedure: Calcein incorporates into the bone mineral and allows measurement of bone formation rate. Calcein was dissolved in 2% sodium bicarbonate. During the tissue harvest, the left tibiae were excised and cleaned for cortical histomorphometry measurements. After all skin and muscle were removed, tibiae were placed in 70% ethanol (4°C) in the dark for a minimum of 24 hours.
Ground transverse sections were used for histomorphometric analysis of cortical bone. Bones were sectioned using a low-speed saw (Isomet, Buehler, Lake Bluff, IL) equipped with a diamond wafer blade. The end of each tibia was removed proximal to tibia-fibula synostosis and a […] cross-section was cut. Using a roughened glass plate and a cork, sections were ground to […] until transparent and all labels were distinguishable under a fluorescent microscope. […] Using the Osteomeasure Bone Analysis Program (Osteometrics, Inc., Decatur, Georgia), bone formation rate was calculated by tracing the 1^s1 and 3rd fluorescent labels and the inner and outer perimeter of the bone. Bone formation rate was calculated by the following equation: (Inter-label width/Label interval) * (Labeled perimeter/Bone perimeter). At least five samples were measured from each treatment group in each study.

[3] = system: IL-1β; assay: Ex vivo LPS-stimulated human whole blood, IL-1β production; type: cell-based; details: one donor
Procedure: (§1) Venous blood from human donors was collected as 10 ml aliquots in tubes containing sodium heparin (BD Vacutainer from Becton Dickinson and Company, Franklin Lakes, NY). Blood was added to sterile polystyrene round bottom 96-well tissue culture plates (Corning Costar) at 100 µl/well, omitting the outside wells. Media (RPMI Medium 1640 with L-glutamine, Invitrogen Corporation, Carlsbad, CA) was added to the blood in 90 µl aliquots for a total volume of 190 µl. Outside wells were filled with 200 µl of media. Blood was placed in a humidified 37°C incubator with 5% CO2 while compounds were prepared (nearly 60 minutes).
(§2) Compounds were prepared from 10 mM stock solutions in dimethylsulfoxide (DMSO, Sigma-Aldrich). […] Final DMSO and ethanol concentrations in the assay were 0.1 % and 1.5%. The samples were gently triturated twice to mix and replaced in the incubator. LPS stock (E. coli serotype 0111:B4, Sigma-Aldrich), stored in aliquots of 100 µg/ml in RPMI at -20°C, was diluted 1/50 in RPMI to make a working stock solution. After 60 minutes of incubation, 10 µl of the prepared LPS working stock was added to the blood to a final concentration of 100 ng/ml, omitting wells to be used as negative control. The samples were again gently triturated and the plates incubated overnight for 22 hours. Following incubation, the blood was centrifuged at 1500 x g for 5 minutes and the plasma removed to either freeze at -20°C or assay for cytokine release.
(§3) IL-1β, IFNγ,IL-6, and TNFα protein levels were measured using Meso Scale assay kits (Meso Scale Discovery, Gaithersburg, MD). Reagents were allowed to come to room temperature. Meso Scale plates were blocked with 30 µl of human plasma/serum assay diluent with gentle shaking for 60 minutes at room temperature. Plates were washed 3x with wash buffer (PBS, Invitrogen Corporation, with 0.05% Tween-20, Sigma-Aldrich). Calibrators for standard curves were prepared in human plasma/serum assay diluent as a 1/5 serial dilution to achieve final concentrations ranging from 50000 pg/ml to 3.2 pg/ml. Samples and calibrators were added at 20 µl/well, then incubated at room temperature with gentle shaking for 90 minutes. Plates were again washed 3 times with wash buffer. Detection antibody was diluted in human plasma/serum antibody diluent to 1 µg/ml and added to the plate at 20 µl/well. Plates were incubated as before for 60 minutes and washed again. Read Buffer T (4x) was diluted 1:1 with mqH2O to 2 times concentration and 150 µl added to each well. Plates were analyzed on the SECTOR Imager 6000 (Meso Scale Discovery) to generate raw signal values.
(§4) Individual values were compared to positive and negative controls (vehicle treated blood with LPS and vehicle treated blood without LPS, respectively) to generate % inhibition. Triplicate values were averaged for each donor. The values for two donors were averaged (only one donor was used for IL-1β) and graphed using 4-parameter fit curves in the GraFit 5.0.11 application.

[4] = in vivo; details: rat, po
[5] = system: TNFα; assay: Ex vivo LPS-stimulated human whole blood, TNFα production; type: cell-based; details: mean values
Procedure: as §1, §2, §3, §4

[6] = system: Mouse Collagen-induced arthritis (mCIA); assay: Therapeutic mouse collagen-induced arthritis (mCIA) model; type: in vivo, Male DBA/J mice
Text: Mouse Collagen-induced arthritis is a commonly used chronic, preclinical model of rheumatoid arthritis in which joint swelling and bone destruction occur following immunization with type II collagen. Reduction of disease incidence and severity has been shown previously to be predictive of disease-modification and signs and symptoms mitigation, respectively, in a clinical setting. In the therapeutic mCIA model, induction of disease incidence and severity was synchronized via LPS stimulation. Male DBA/J mice were immunized with 100 ug of bovine type II collagen (bCII) on day 0. […] Dosing of compounds was initiated in the therapeutic mode on day 34 and continued through day 49. Different treatments were compared by measuring the decrease in incidence (i.e., resolution of disease) and the decrease in severity of paw swelling over time.

## Cc1ncccc1NC(=O)c1ccc2c(c1)CC[C@@H]1C[C@@](O)(C(F)(F)F)CC[C@@]21Cc1ccccc1 [Example 1, (4βS,7R,8αR)-4β-benzyl-7-hydroxy-N-(2-methylpyridin-3-yl)-7-(trifluoromethyl)-4β,5,6,7,8,8α,9,10-octahydrophenanthrene-2-carboxamide]
[1]
  Disease incidence (traditional mCIA) EAUC50 (AUC 0-4 hr): 0.04 µg·h/mL
  Disease incidence (traditional mCIA) EAUC80 (AUC 0-4 hr): 0.10 µg·h/mL
[2]; data set 2
  Cortical bone formation rate (BFR) EAUC50: 0.35
  Cortical bone formation rate (BFR) EAUC80: 1.76
[2]; mice
  Cortical bone formation rate (BFR) EAUC50 (AUC 0-4 hr): 270 ng·h/mL
  Cortical bone formation rate (BFR) EAUC80 (AUC 0-4 hr): 1550 ng·h/mL
[3]; 0.457247 nM
  inhibition at 0.000457247 µM: 23.4%
[3]; 1.371742 nM
  inhibition at 0.00137174 µM: 22.4%
[3]; 4.115226 nM
  inhibition at 0.00411523 µM: 11.2%
[3]; 12.34568 nM
  inhibition at 0.0123457 µM: 21.5%
[3]; 37.03704 nM
  inhibition at 0.037037 µM: 38.2%
[3]; 111.1111 nM
  inhibition at 0.111111 µM: 39.7%
[3]; 333.3333 nM
  inhibition at 0.333333 µM: 57.8%
[3]; 1000 nM
  inhibition at 1 µM: 53.5%
[4]
  AUC: 460 ng·h/mL
[5]; 0.457247 nM
  inhibition at 0.000457247 µM: 8.96%
[5]; 1.371742 nM
  inhibition at 0.00137174 µM: 7.87%
[5]; 4.115226 nM
  inhibition at 0.00411523 µM: -1.31%
[5]; 12.34568 nM
  inhibition at 0.0123457 µM: 9.42%
[5]; 37.03704 nM
  inhibition at 0.037037 µM: 18.7%
[5]; 111.1111 nM
  inhibition at 0.111111 µM: 27.4%
[5]; 333.3333 nM
  inhibition at 0.333333 µM: 36%
[5]; 1000 nM
  inhibition at 1 µM: 38.1%
[6]; Mus musculus, dosing day 34 through day 49, read-out: Therapeutic mCIA (ED80 dose)
  ED80: 1.5 mg/kg
[6]; dosing day 34 through day 49, listed as Example 1 free base
  Therapeutic mCIA (ED50 dose): 0.4 mg/kg
[6]; mice
  Disease severity (therapeutic mCIA) EAUC50 (AUC 0-4 hr): 0.09 µg·h/mL
  Disease severity (therapeutic mCIA) EAUC80 (AUC 0-4 hr): 0.19 µg·h/mL
